# According to paper PMC4154654 (PLoS Neglected Tropical Diseases, 2014):
# Several values for one entry are separate records, joined by “and”; a condition that tells them apart may be missing. Equal values may be shown once.
# Columns and labels:
# CFTR Cl− channel [1] = target: T1, CFTR Cl− channel (Homo sapiens, UniProt P13569); assay: Apical Cl− current analysis of CFTR Cl− channel activity in basolaterally permeabilized T84 cells; assay type: cell-based
# CFTR Cl− channel [2] = target: T1, CFTR Cl− channel; assay: Apical Cl− current analysis of CFTR Cl− channel activity in Calu-3 cells; assay type: cell-based; conditions: CPT-cAMP
# [3] = tested on: intracellular cAMP levels in T84 cells; assay: Intracellular cAMP measurement (cAMP immunoassay) in T84 cells; assay type: cell-based, human; conditions: 200 µM, 1 h, basal and forskolin-stimulated (20 µM) conditions
# Method: Intracellular cAMP levels in T84 cells were measured using cAMP immunoassays (R&D Systems, Minneapolis, Minnesota, USA). T84 cells were seeded on 24-well plates at a density of 10^6 cells/well and grown for 24 h in a humidified 5% CO2/[…] incubator at 37°C. […] Thereafter, cells were lysed with cell lysis buffer and level of intracellular cAMP was measured according to the manufacturer's instructions.
# Data are expressed as means ± S.E.M. NS, non-statistical difference (n = 3).
# Na+-K+ ATPase = Na+-K+ ATPase activity (ouabain-sensitive short-circuit current) in T84 cells; assay type: cell-based, human; conditions: pretreatment 200 µM
# Method: After stabilization of the amphotericin B-induced rise in Isc, ouabain (1 mM) was added into the basolateral solution and the values of ouabain-sensitive current were used to represent the activity of Na^+-K^+ ATPases.
# In this method, apical membrane was permeabilized by amphotericin B (250 µg/ml) and a K^+ gradient ([K^+]apical>[K^+]basolateral) was established using asymmetrical K^+ buffers in the presence of ouabain in basolateral solutions (to prevent current generated by Na^+-K^+ ATPases) (Fig. 5A, inset). The basolateral K^+ current elicited by an addition of cell-permeable cAMP (e.g. CPT-cAMP) would, therefore, reflect the activity of cAMP-activated K^+ channels located in the basolateral membrane of T84 cells (i.e. KCNQ1/KCNE3 K^+ channels). […] In this protocol, intracellular Na^+ loading by amphotericin B-induced permeabilization of apical membrane stimulated Na^+-K^+ ATPase activity, resulting in an increase in Isc (Fig. 5B, inset). […]
# Na^+-K^+ ATPase activity was estimated from values of ouabain-sensitive short-circuit current, which was induced by intracellular Na^+ loading following amphotericin B (250 µg/ml)-induced apical membrane permeabilization. […] Summary of data is expressed as means of ouabain-sensitive short-circuit current ± S.E.M. (n = 6–8).
# [4] = target: T2, Na+-K+-Cl− cotransporter (NKCC1) (Homo sapiens, UniProt P55011); assay: Thallium (Tl+) influx-based fluorescent assay of NKCC1 activity in T84 cells; assay type: cell-based
# T2 sequence (P55011 1-1212): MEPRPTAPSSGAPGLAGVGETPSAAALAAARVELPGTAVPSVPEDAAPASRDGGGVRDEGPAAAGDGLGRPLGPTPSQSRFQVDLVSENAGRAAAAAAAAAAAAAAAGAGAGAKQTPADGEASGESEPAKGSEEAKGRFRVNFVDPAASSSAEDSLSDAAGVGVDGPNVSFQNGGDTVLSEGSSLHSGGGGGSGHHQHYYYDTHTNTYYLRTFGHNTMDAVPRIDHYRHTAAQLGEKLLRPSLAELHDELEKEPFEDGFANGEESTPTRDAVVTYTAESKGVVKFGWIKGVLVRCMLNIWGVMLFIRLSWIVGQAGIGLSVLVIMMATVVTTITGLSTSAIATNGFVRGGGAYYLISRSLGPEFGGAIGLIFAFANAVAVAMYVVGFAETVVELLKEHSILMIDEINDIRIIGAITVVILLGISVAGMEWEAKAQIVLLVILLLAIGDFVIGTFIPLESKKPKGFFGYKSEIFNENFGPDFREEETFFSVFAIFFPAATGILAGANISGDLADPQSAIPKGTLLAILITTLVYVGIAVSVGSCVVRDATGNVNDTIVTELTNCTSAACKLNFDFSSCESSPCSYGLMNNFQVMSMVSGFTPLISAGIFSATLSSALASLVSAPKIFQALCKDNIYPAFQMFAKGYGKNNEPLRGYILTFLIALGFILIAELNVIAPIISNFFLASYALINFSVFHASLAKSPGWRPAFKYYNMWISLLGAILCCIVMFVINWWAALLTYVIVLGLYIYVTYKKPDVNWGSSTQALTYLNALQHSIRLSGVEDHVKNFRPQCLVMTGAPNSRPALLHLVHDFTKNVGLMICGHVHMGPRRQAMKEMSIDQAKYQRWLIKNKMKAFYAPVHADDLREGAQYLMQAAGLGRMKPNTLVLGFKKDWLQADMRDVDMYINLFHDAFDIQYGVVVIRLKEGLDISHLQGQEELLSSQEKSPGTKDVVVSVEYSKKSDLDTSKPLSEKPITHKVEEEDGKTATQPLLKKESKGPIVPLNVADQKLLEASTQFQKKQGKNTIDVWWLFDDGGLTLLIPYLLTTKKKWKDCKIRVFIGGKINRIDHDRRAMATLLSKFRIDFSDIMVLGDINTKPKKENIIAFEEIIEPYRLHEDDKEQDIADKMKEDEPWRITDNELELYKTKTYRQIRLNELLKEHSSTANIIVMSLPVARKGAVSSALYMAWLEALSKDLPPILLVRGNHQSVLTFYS
# [5] = tested on: phosphorylated Ca2+/calmodulin-dependent protein kinase II (CaMKII); assay: Immunoblot analysis of ATP-induced CaMKII phosphorylation in T84 cells; assay type: cell-based, human; conditions: 20 min, ATP 100 µM plus diclofenac 20 µM
# Method: Proteins were extracted using lysis buffers containing (pH 7.4) 1% Triton X-100, 50 mM Tris-HCl, 150 mM NaCl, 1 mM EDTA, 1 mM NaF, 1 mM Na3VO4, 1 mM PMSF and protease inhibitor (PI) cocktail. Protein concentration was determined using a Lowry method. Equal amounts of proteins were loaded on sodium dodecyl sulfate polyacrylamide gel electrophoresis and transferred to a nitrocellulose membrane. […] The secondary antibodies were horseradish peroxidase-conjugated anti-rabbit IgG antibodies. The immunoblot was visualized using a chemiluminescence detection method.
# [6] = target: Ca2+-activated basolateral K+ channels (KCa3.1) (Homo sapiens, UniProt O15554); assay: Basolateral K+ current analysis of ATP-stimulated Ca2+-activated basolateral K+ channels in T84 cells; assay type: cell-based; conditions: BaCl2 5 mM, ATP 100 µM
# Method: High K^+ apical solution contained (pH 7.3) 142.5 mM K-gluconate, 1.25 mM CaCl2, 0.40 mM MgSO4, 0.43 mM […], 0.35 mM Na2HPO4, 10 mM Na-HEPES and 5.6 mM glucose. In low K^+ basolateral solution, concentration of K-gluconate was reduced to 5.4 mM and 136.9 mM N-methyl-glucamine was added. Before basolateral K^+ current measurements, apical membrane of T84 cells was permeabilized by amphotericin B (250 µg/ml) and ouabain (1 mM) was added into basolateral solution to prevent current contributed by Na^+-K^+ ATPase.
# [7] = tested on: cholera toxin (CT)-induced Cl− secretion in T84 cells; assay: cells; assay type: cell-based; conditions: Homo sapiens
# [8] = tested on: forskolin-induced Cl− secretion in mouse intestinal sheets
# [9] = tested on: CT-induced intestinal fluid secretion; assay: Mouse closed-loop model of cholera induced by CT; assay type: in vivo; conditions: mice, 30 mg/kg intraperitoneal, CT 1 µg/loop, 4 h, loop weight/length ratio
# [10] = tested on: V. cholerae-induced intestinal fluid secretion; assay: Mouse closed-loop model of cholera induced by V. cholerae; assay type: in vivo; conditions: mice, 30 mg/kg intraperitoneal, 10^7 CFU/loop, 12 h, loop weight/length ratio
# T84 cells = assay: MTT assay of T84 cell viability; conditions: 24-h exposure, 10 µM to 200 µM
# [11] = tested on: Ca2+-activated Cl− channel (CaCC); assay: Apical Cl− current analysis of ATP-stimulated CaCC in T84 cells
# [12] = tested on: inwardly rectifying Cl− channel (IRC); assay: Apical Cl− current analysis of forskolin-stimulated IRC in T84 cells
# [13] = tested on: cholera toxin (CT)-induced intestinal fluid secretion; conditions: mouse, in vivo; cited from earlier work
# [14] = tested on: live V. cholerae-induced intestinal fluid secretion; conditions: mice; ref [17], [38]; cited from earlier work
# T84 cell monolayers = assay: Barrier function assay (FITC-dextran flux) in T84 cell monolayers; conditions: 24-h treatment, 3 mM
# [15] = target: cAMP-activated basolateral K+ channels (KCNQ1/KCNE3) (Homo sapiens, UniProt P51787); conditions: T84 cells, 30 µM
# Chain of cAMP-activated basolateral K+ channels (KCNQ1/KCNE3) (Q9Y6H6 whole entry): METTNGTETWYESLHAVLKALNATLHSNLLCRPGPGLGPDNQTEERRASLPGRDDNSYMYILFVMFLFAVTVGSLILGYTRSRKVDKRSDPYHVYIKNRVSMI
# Chain of cAMP-activated basolateral K+ channels (KCNQ1/KCNE3) (P51787 whole entry): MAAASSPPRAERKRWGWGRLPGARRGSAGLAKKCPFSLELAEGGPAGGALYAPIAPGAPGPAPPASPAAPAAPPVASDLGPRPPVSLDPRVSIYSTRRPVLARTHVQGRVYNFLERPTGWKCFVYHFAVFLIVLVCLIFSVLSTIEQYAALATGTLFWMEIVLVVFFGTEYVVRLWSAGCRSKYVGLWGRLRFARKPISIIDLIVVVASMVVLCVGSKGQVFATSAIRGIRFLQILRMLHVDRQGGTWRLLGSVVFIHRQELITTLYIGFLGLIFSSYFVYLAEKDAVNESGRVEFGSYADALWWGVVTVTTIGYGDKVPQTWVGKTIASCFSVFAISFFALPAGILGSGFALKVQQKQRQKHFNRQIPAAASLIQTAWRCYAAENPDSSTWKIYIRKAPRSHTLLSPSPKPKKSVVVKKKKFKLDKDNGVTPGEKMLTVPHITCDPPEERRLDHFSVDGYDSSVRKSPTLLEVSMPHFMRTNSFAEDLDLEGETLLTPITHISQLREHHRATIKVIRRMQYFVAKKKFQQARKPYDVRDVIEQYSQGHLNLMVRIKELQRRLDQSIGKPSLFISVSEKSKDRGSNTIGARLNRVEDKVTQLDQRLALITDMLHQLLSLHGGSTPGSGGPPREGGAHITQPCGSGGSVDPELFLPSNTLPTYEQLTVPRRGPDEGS
# T1 sequence (P13569 whole entry): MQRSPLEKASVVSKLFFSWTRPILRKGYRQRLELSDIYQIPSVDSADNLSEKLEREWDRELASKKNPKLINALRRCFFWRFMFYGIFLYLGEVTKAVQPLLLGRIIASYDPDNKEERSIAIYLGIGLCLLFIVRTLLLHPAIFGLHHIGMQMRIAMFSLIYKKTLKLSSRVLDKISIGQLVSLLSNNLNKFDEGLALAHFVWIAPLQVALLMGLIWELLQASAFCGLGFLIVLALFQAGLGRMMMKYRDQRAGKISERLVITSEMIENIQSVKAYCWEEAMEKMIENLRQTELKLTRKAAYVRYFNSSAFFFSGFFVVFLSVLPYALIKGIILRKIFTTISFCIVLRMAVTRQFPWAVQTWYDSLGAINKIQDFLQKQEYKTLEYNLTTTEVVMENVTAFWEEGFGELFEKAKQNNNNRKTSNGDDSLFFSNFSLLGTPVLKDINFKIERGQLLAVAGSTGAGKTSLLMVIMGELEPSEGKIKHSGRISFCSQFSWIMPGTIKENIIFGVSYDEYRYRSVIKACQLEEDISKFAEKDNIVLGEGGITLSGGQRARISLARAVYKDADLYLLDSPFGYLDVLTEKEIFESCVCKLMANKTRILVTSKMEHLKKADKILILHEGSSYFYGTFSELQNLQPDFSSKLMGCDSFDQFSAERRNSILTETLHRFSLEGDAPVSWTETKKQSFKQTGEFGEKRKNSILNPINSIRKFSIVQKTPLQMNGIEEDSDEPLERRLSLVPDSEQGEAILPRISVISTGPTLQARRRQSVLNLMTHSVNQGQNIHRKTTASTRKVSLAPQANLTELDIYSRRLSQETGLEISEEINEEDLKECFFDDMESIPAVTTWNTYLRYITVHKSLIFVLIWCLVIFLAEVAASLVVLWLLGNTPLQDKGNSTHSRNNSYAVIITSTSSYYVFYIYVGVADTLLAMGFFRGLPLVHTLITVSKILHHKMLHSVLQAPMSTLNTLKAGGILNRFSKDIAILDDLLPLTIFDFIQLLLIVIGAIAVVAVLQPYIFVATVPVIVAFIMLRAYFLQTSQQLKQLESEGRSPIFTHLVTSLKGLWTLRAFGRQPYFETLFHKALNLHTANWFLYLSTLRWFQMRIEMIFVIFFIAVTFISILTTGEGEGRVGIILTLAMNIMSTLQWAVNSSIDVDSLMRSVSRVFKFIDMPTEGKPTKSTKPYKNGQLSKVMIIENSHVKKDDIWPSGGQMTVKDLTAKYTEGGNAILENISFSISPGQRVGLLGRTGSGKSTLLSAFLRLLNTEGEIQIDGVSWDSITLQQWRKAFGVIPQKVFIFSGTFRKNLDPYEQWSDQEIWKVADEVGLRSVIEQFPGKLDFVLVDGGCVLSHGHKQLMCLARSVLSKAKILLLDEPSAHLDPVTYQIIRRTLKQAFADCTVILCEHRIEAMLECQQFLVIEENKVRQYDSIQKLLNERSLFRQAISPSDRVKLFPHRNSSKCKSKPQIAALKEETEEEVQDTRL
# Chain of Ca2+-activated basolateral K+ channels (KCa3.1) (O15554 whole entry): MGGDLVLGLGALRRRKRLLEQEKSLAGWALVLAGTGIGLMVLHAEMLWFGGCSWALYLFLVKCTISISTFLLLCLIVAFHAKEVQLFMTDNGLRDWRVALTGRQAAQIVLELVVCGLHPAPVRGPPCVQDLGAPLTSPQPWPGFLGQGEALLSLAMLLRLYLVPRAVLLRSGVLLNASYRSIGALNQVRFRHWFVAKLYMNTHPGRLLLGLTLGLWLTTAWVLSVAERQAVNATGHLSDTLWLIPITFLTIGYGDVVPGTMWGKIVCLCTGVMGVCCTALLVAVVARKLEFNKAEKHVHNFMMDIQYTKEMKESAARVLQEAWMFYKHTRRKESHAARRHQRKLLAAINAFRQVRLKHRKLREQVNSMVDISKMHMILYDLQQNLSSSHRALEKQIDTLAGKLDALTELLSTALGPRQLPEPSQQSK
structure (smiles),measurement,setting,value
O=C(O)Cc1ccccc1Nc1c(Cl)cccc1Cl [diclofenac],reversibility of inhibition of CFTR-mediated apical Cl− current,"CFTR Cl− channel [1]; 20 µM, after removal from bathing solutions",reversible
same,IC50,"CFTR Cl− channel [1]; CPT-cAMP 100 µM, read-out: IC50, inhibition of apical Cl− current induced by CPT-cAMP",8.5 µM
same,potency of inhibition of forskolin-induced Cl− current in the presence of IBMX,CFTR Cl− channel [1]; IBMX (PDE inhibitor) vs forskolin control,not different from that of control
same,"potency of inhibition of apical Cl− current after pretreatment with MK571, compound C or Na2VO3","CFTR Cl− channel [1]; MRP4, AMPK or protein phosphatase inhibitor",did not alter the potency
same,IC50,"CFTR Cl− channel [1]; apical Cl− current, regardless of the mechanisms of CFTR activation, read-out: IC50, inhibition of CFTR Cl− channel activity (summary)",~10 µM and 8 to 10 µM
same,IC50,"CFTR Cl− channel [1]; forskolin 20 µM, read-out: IC50, inhibition of apical Cl− current induced by forskolin",8 µM
same,inhibition of CFTR-mediated apical Cl− current at 100 µM,"CFTR Cl− channel [1]; forskolin, CPT-cAMP or genistein, 100 µM",almost complete inhibition
same,IC50,"CFTR Cl− channel [1]; genistein 20 µM, read-out: IC50, inhibition of apical Cl− current induced by genistein",10 µM
same,inhibition of CFTR-mediated apical Cl− current at 100 µM,CFTR Cl− channel [2],near complete inhibition
same,IC50,"CFTR Cl− channel [2]; 100 µM, read-out: IC50, inhibition of CFTR-mediated apical Cl− current induced by CPT-cAMP",~10 µM
same,effect on intracellular cAMP levels,[3],virtually no effect
same,effect on ouabain-sensitive Isc (Na+-K+ ATPase activity),Na+-K+ ATPase,no effect
same,effect on Tl+ influx (NKCC1 activity),[4]; pretreatment 200 µM,no effect
same,effect on ATP-induced CaMKII phosphorylation,[5],unaffected
same,inhibition of basolateral K+ current induced by ATP at 200 µM,[6],near complete inhibition
same,IC50,"[7]; T84, read-out: IC50, inhibition of cholera toxin (CT)-induced Cl− secretion",~10 µM
same,inhibition at 100 µM,"[7]; T84, read-out: inhibition of CT-induced Cl− secretion at 100 µM",> 95%
same,effect on forskolin-induced Cl− secretion in mouse intestinal sheets,[8],inhibited
same,inhibition of CT-induced intestinal fluid secretion,[9],~70%
same,inhibition of V. cholerae-induced intestinal fluid secretion,[10],~70%
same,effect on T84 cell viability (MTT),T84 cells,did not affect
same,inhibition of CaCC-mediated apical Cl− current at 20 µM,[11]; 20 µM,almost complete inhibition
same,IC50,"[11]; read-out: IC50, inhibition of CaCC-mediated apical Cl− current, CFTRinh-172 pretreatment, ATP 100 µM",~1 µM
same,inhibition of IRC-mediated apical Cl− current at 100 µM,[12]; 100 µM,near complete inhibition
same,IC50,"[12]; read-out: IC50, inhibition of IRC-mediated apical Cl− current, CFTRinh-172 pretreatment, forskolin 20 µM",~5 µM
CCCCNc1cc(C(=O)O)cc(S(N)(=O)=O)c1Oc1ccccc1 [bumetanide],"effect on Tl+ influx (NKCC1 activity), positive control",[4]; 100 µM,completely prevented
O=C(O)c1ccc(/C=C2\SC(=S)N(c3cccc(C(F)(F)F)c3)C2=O)cc1 [CFTRinh-172],effect on recovered apical Cl− current after washout,"CFTR Cl− channel [1]; forskolin, CFTRinh-172 5 µM apical",inhibited
same,reduction of cholera toxin (CT)-induced intestinal fluid secretion,[13],> 90%
same,reduction of live V. cholerae-induced intestinal fluid secretion,[14],> 90%
O=C(O)CN(CCOCCOCCN(CC(=O)O)CC(=O)O)CC(=O)O [EGTA],"effect on FITC-dextran flux, positive control",T84 cell monolayers,markedly increased
Clc1ccccc1C(c1ccccc1)(c1ccccc1)n1ccnc1 [clotrimazole],effect on CPT-cAMP-induced basolateral K+ current,[15],markedly inhibited
